Reference: paper PMC10299909, “Structural basis of efficacy-driven ligand selectivity at GPCRs” (Nature Chemical Biology, 2023)
Numbering of substitutions follows the chain as printed. “And” between values parts separate entries of the source, which are not always exact repeats. Equal entries are not always repeated. Where two headings read alike, the source gives them in different places. Blank lines part the entries; values can stand above or below the compound they belong to.

Columns and labels:
[1] = biological target: T1, M2 mAChR (Homo sapiens, UniProt P08172); test: pERK1/pERK2 signaling assay (AlphaScreen SureFire), CHO FlpIn cells; assay type: cell-based; conditions: for Fit parameter: Figure 5c, by tail length, best fit value from nonlinear regression on grouped data
T1 sequence (P08172 1-466): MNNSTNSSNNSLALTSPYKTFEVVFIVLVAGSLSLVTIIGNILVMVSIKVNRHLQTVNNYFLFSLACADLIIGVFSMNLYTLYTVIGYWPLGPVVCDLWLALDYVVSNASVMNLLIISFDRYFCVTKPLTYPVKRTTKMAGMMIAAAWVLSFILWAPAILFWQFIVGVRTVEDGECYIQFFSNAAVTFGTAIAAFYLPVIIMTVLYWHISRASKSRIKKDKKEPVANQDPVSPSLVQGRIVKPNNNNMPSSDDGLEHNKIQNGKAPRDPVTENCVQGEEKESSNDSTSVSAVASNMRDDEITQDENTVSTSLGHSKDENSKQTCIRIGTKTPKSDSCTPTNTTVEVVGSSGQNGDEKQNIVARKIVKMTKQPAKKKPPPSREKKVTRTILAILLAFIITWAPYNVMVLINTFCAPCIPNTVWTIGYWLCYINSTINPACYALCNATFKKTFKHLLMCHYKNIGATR

[2] = biological target: T2, M4 mAChR (Homo sapiens, UniProt P08173); test: as above; assay type: cell-based; conditions: for Fit parameter: Figure 5c, by tail length, best fit value from nonlinear regression on grouped data
T2 construct: expressed in transfected cells; host or cells: CHO FlpIn
T2 sequence (P08173 1-479): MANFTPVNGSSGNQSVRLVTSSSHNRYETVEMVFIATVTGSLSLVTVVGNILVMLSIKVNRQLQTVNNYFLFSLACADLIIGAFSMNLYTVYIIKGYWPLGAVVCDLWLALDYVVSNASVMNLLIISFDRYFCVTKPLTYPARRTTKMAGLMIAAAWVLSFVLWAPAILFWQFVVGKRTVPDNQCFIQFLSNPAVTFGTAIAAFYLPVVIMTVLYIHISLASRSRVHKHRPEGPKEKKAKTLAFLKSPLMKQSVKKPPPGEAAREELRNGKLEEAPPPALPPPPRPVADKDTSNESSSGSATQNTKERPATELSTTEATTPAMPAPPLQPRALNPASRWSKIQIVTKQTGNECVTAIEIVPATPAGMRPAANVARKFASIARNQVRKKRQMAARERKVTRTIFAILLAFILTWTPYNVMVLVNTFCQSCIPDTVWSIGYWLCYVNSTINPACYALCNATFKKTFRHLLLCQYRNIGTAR

[3] = biological target: T3, M3 mAChR (Homo sapiens, UniProt P20309); test: whole-cell [3H]NMS radioligand competition binding, CHO FlpIn cells; conditions: first set of experiments, read-out: pKI (radioligand binding competition with [3H]NMS) (converted)
T3 construct: expressed in transfected cells; host or cells: CHO FlpIn

[4] = biological target: T2, M4 mAChR; test: as above; conditions: M4; first set of experiments (top 5 rows); read-out: pKI (radioligand binding competition with [3H]NMS) (converted)
[5] = biological target: T4, M5 mAChR (Homo sapiens, UniProt P08912); test: as above; conditions: first set of experiments, read-out: pKI (radioligand binding competition with [3H]NMS) (converted)
T4 construct: expressed in transfected cells; host or cells: CHO FlpIn
T4 sequence (P08912 1-532): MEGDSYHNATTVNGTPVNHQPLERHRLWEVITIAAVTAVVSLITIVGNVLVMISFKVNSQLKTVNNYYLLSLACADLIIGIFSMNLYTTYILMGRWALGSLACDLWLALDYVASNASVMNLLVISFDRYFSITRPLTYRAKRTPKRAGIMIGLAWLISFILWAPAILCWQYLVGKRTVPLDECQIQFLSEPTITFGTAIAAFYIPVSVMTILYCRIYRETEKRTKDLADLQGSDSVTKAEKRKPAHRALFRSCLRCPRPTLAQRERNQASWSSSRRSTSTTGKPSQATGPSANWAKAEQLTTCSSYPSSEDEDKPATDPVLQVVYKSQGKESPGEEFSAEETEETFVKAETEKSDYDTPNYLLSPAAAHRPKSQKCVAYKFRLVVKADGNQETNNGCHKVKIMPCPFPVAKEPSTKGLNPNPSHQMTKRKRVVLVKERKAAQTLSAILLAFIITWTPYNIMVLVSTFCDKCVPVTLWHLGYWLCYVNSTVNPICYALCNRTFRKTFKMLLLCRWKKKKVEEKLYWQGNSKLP

[6] = biological target: M1 mAChR (Homo sapiens, UniProt P11229); test: cell-based
[7] = biological target: T1, M2 mAChR; test: cell-based
[8] = biological target: T3, M3 mAChR; test: pERK1/pERK2 signaling assay (AlphaScreen SureFire), CHO FlpIn cells; assay type: cell-based; conditions: M3; first set of experiments
[9] = biological target: T4, M5 mAChR; test: as above; assay type: cell-based; conditions: first set of experiments
[10] = biological target: T5, M4 L190F mAChR (Homo sapiens, UniProt P08173, L190F); test: as above; assay type: cell-based
T5 construct: expressed in transfected cells; host or cells: CHO FlpIn
T5 sequence (P08173 1-479 L190F): T2 sequence (P08173 1-479) with L190F

[11] = biological target: T6, M2 WT mAChR (Homo sapiens, UniProt P08172); test: BRET TRUPATH GoA activation (G-protein dissociation) assay; assay type: cell-based; conditions: M2 wt, T=6min, individual experiments, listed as Ach
T6 construct: expressed in transfected cells; host or cells: CHO FlpIn
T6 sequence (P08172 1-466): T1 sequence (P08172 1-466)
Protocol: (§1) Cells were seeded at 20,000 cells per well into 96-well flat-bottom white culture plates and grown for 4 h. Plasmid DNA (20 ng per well of Gα, Gβ and Gγ at a 1:1:1 ratio) and linear polyethylenimine were added to the cells in a 1:6 ratio. To allow for protein expression, cells were then incubated (37 °C, 5% CO2) for 48 h before the measurement of agonist activity. […] The initial 4 min of measurement was considered baseline counts before ligand or vehicle addition, with BRET readings every 2 min for a further 8 min following drug or vehicle addition.
(§2) Concentration–response curves were fitted to a three-parameter logistic equation to derive ligand potency (pEC50) estimates.
(§3) Data was analyzed using the operational model of agonism to quantify the efficacy (Logτ) of each agonist in each cell line, and subsequently corrected for receptor expression level differences between cell lines (Logτc), using the M2 WT as reference. […] Source data

[12] = biological target: T5, M4 L190F mAChR; test: as above; assay type: cell-based; conditions: T=6min, listed as Ach
Protocol: as §1, §2, §3

[13] = biological target: T7, M4 WT mAChR (Homo sapiens, UniProt P08173); test: as above; assay type: cell-based; conditions: T=6min, listed as Ach
T7 construct: expressed in transfected cells; host or cells: CHO FlpIn
T7 sequence (P08173 1-479): T2 sequence (P08173 1-479)
Protocol: as §1, §2, §3

[14] = biological target: M4 mAChR (Homo sapiens, UniProt P08173); test: [3H]NMS competition binding, purified receptor in lipid nanodiscs with Gi1 heterotrimer
[15] = biological target: M2 mAChR (Homo sapiens, UniProt P08172)
[16] = overnight treatment with 10 ng per well pertussis toxin
[17] = Log[Ligand] (M) -4, individual experiments
[18] = Log[Ligand] (M) -9, individual experiments
[19] = Log[Ligand] (M) -10, individual experiments
[20] = Log[Ligand] (M) -12, individual experiments
[21] = Receptor : G protein Molar Ratio 1:0

Compound: pertussis toxin
acetylcholine-mediated pERK1/pERK2 response eliminated [1, 16]: > 95%
acetylcholine-mediated pERK1/pERK2 response eliminated [2, 16]: > 95%

Fit parameter [1]: 0.1544
Fit parameter [2]: 0.4743
Compound: CCCCCCCOc1nsnc1C1=CCCN(C)C1 [C7]

Compound: CCCOc1nsnc1C1=CCCN(C)C1 [3-carbon tail analog of xanomeline]
Ki [3]: 0.0347 µM
Ki [4]: 0.0372 µM
Ki [5]: 0.049 µM
Ki [6]: 0.0275 µM
Ki [7]: 0.0229 µM

Fit parameter [1]: 0.1239
Fit parameter [2]: 0.3749
Compound: CCCCCCCCOc1nsnc1C1=CCCN(C)C1 [C8]

Compound: CCCCCCOc1nsnc1C1=CCCN(C)C1 [C6]
Fit parameter [1]: 0.08358
Fit parameter [2]: 0.5137

Fit parameter [1]: 0.5922
Fit parameter [2]: 0.4707
Compound: CCCCOc1nsnc1C1=CCCN(C)C1 [C4]

Compound: CCCOc1nsnc1C1=CCCN(C)C1 [C3]
Fit parameter [1]: 0.6149
Fit parameter [2]: 0.346

Compound: CC(=O)OCC[N+](C)(C)C [Acetylcholine, acetylcholine]
Emax pERK1/2 [8]: 98 ± 5 % FBS stimulation
Emax pERK1/2 [9]: 90 ± 4 % FBS stimulation
Emax pERK1/2 [10]: 94 ± 8 % FBS stimulation
GoA activation response ([11]; Log[Ligand] (M) -4): 103.24 % Emax ACh and 95.841 % Emax ACh and 98.7568 % Emax ACh and 99.8054 % Emax ACh and 99.3813 % Emax ACh
GoA activation response ([11]; Log[Ligand] (M) -8): 9.766 % Emax ACh
GoA activation response ([11]; Log[Ligand] (M) -9): 1.63 % Emax ACh and -3.189 % Emax ACh and -6.851 % Emax ACh and 0.4007 % Emax ACh and 0.416 % Emax ACh
GoA activation response ([11]; Log[Ligand] (M) -10): -3.058 % Emax ACh and 8.597 % Emax ACh and 0.3009 % Emax ACh and 1.683 % Emax ACh and 4.386 % Emax ACh
GoA activation response ([11]; Log[Ligand] (M) -12): 6.399 % Emax ACh and 0.8864 % Emax ACh and 8.076 % Emax ACh and 1.671 % Emax ACh and -0.9147 % Emax ACh
GoA activation response [12, 17]: 106.304 % Emax ACh and 103.075 % Emax ACh and 107.769 % Emax ACh and 104.574 % Emax ACh and 105.838 % Emax ACh
GoA activation response ([12]; Log[Ligand] (M) -5, individual experiments): 99.5547 % Emax ACh and 105.081 % Emax ACh and 94.0499 % Emax ACh and 100.086 % Emax ACh and 98.7018 % Emax ACh
GoA activation response ([12]; Log[Ligand] (M) -6, individual experiments): 84.6502 % Emax ACh and 86.1198 % Emax ACh and 94.9784 % Emax ACh and 91.5878 % Emax ACh and 95.0975 % Emax ACh
GoA activation response ([12]; Log[Ligand] (M) -7, individual experiments): 59.4174 % Emax ACh and 69.5753 % Emax ACh and 70.634 % Emax ACh and 76.3729 % Emax ACh and 78.8634 % Emax ACh
GoA activation response ([12]; Log[Ligand] (M) -8, individual experiments): 12.4418 % Emax ACh and 20.3625 % Emax ACh and 19.5412 % Emax ACh and 25.1119 % Emax ACh and 33.5842 % Emax ACh
GoA activation response [12, 18]: 1.269 % Emax ACh and 1.901 % Emax ACh and 28.8031 % Emax ACh and 3.9293 % Emax ACh and 7.995 % Emax ACh
GoA activation response [12, 19]: -3.41 % Emax ACh and 9.605 % Emax ACh and 0.2419 % Emax ACh and -0.9 % Emax ACh and 0.4231 % Emax ACh
GoA activation response [12, 20]: 2.811 % Emax ACh and -10.3446 % Emax ACh and -23.8686 % Emax ACh and 0.009116 % Emax ACh and -3.752 % Emax ACh
GoA activation response [13, 17]: 104.45 % Emax ACh and 102.662 % Emax ACh and 101.586 % Emax ACh and 101.003 % Emax ACh and 104.541 % Emax ACh
GoA activation response [13, 18]: 1.1727 % Emax ACh and 5.239 % Emax ACh and 5.623 % Emax ACh and -1.171 % Emax ACh and 2.894 % Emax ACh
GoA activation response [13, 19]: 3.695 % Emax ACh and 0.8905 % Emax ACh and -7.035 % Emax ACh and 0.4855 % Emax ACh and -3.187 % Emax ACh
GoA activation response [13, 20]: -21.8016 % Emax ACh and 1.058 % Emax ACh and -6.101 % Emax ACh and 1.717 % Emax ACh and -0.3266 % Emax ACh
Fraction of receptors in a G protein-dependent high-affinity state [14, 21]: 0.00 ± 0.04
Fraction of receptors in a G protein-dependent high-affinity state ([14]; Receptor : G protein Molar Ratio 1:125): 0.30 ± 0.04
Fraction of receptors in a G protein-dependent high-affinity state ([14]; Receptor : G protein Molar Ratio 1:500): 0.71 ± 0.03
Fraction of receptors in a G protein-dependent high-affinity state [15, 21]: 0.13 ± 0.10
Fraction of receptors in a G protein-dependent high-affinity state ([15]; Receptor : G protein Molar Ratio 1:50): 0.33 ± 0.10
Fraction of receptors in a G protein-dependent high-affinity state ([15]; Receptor : G protein Molar Ratio 1:1000): 0.57 ± 0.11
Fraction of receptors in a G protein-dependent high-affinity state ([15]; Receptor : G protein Molar Ratio 1:2000): 0.89 ± 0.12

Fit parameter [1]: 0.2865
Fit parameter [2]: 0.4599
Compound: CCCCCOc1nsnc1C1=CCCN(C)C1 [C5]
